Among the data in patent US11939307B2, “Phenylmethyl-piperazine derivatives and antiviral uses thereof” (INSTITUTE OF MEDICINAL BIOTECHNOLOGY, CHINESE ACADEMY OF …, priority 2019, dated 2024) are inhibition values, retold here.

Where only a bound is given, the exact number is not on record here.

In the experiment the test system is HCV. Put plainly: Assay of anti-HCV activity in HCV-infected Huh7.5 cells (intracellular HCV RNA by one-step quantitative RT-PCR). The experiment is classed as cell-based. The following applies: Hepatitis C virus; compound at 1 μM; Huh7.5 cells infected with HCV; 96 hrs; intracellular HCV RNA vs viral control; read-out: inhibitory activities (inhibitory levels of the compounds against HCV replication). An outline of the steps: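 Huh7.5 cells were infected with HCV particles while compounds were added at 1 μM, then incubated 96 h at 37 °C, 5% CO2. Intracellular HCV RNA was quantified by one-step qRT-PCR, and inhibition was calculated relative to the viral control.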
As for `CC(c1ccccc1)N1CCN(Cc2cc(N3CCCC(N(C)C)C3)ccc2C#N)CC1` (centres unmarked) [Compound 14, 4-(3-(dimethylamino)piperidin-1-yl)-2-((4-(1-phenylethyl)piperazin-1-yl)methyl)benzonitrile], the inhibition at 1 µM lay within 50 to 75%. On to `CN(CCN1CCCC1)c1ccc(C(F)(F)F)c(CN2CCN(C(c3ccc(Cl)cc3)c3ccc(Cl)cc3)CC2)c1` [Compound 63, 3-((4-(bis(4-chlorophenyl)methyl)piperazin-1-yl)methyl)-N-methyl-N-(2-(pyrrolidin-1-yl)ethyl)-4-(trifluoromethyl)aniline], for which the inhibition at 1 µM was > 75%. As to `CN(C)CCN(C)c1ccc(C(F)(F)F)c(CN2CCC(c3ccc(Cl)c(Cl)c3)CC2)c1` [Compound 42, N^1-(3-((4-(3,4-dichlorophenyl)piperidin-1-yl)methyl)-4-(trifluoromethyl)phenyl)-N^1,N^2,N^2-trimethylethan-1,2-diamine], the inhibition at 1 µM was > 75%. In the case of `CN(C)CCN(C)c1ccc(C(F)(F)F)c(CN2CCN(c3ccc(Cl)cc3)CC2)c1` [Compound 19, N^1-(3-((4-(4-chlorophenyl)piperazin-1-yl)methyl)-4-(trifluoromethyl)phenyl)-N^1,N^2,N^2-trimethylethan-1,2-diamine], the inhibition at 1 µM was > 75%.

In the case of `CC(c1ccc(C(F)(F)F)cc1)N1CCN(Cc2cc(N(C)CCN(C)C)ccc2C#N)CC1` (centres unmarked) [Compound 15, 4-((2-(dimethylamino)ethyl)(methyl)amino)-2-((4-(1-(4-(trifluoromethyl)phenyl)ethyl)piperazin-1-yl)methyl)benzonitrile], the inhibition at 1 µM is > 75%. In the case of `CN(C)CCN(C)c1ccc(C#N)c(CN2CCN(C(c3ccc(C4CC4)cc3)c3ccc(C4CC4)cc3)CC2)c1` [Compound 84, 2-((4-(bis(4-cyclopropylphenyl)methyl)piperazin-1-yl)methyl)-4-((2-(dimethylamino)ethyl)(methyl)amino)benzonitrile], the inhibition at 1 µM is > 75%. Regarding `CCN1CCCC1CN(C)c1ccc(C(F)(F)F)c(CN2CCN(c3ccc(Cl)cc3)CC2)c1` (centres unmarked) [Compound 25, 3-((4-(4-chlorophenyl)piperazin-1-yl)methyl)-N-((1-ethylpyrrolidin-2-yl)methyl)-N-methyl-4-(trifluoromethyl)aniline], the inhibition at 1 µM is > 75%. For `CN(C)CCN(C)c1ccc(C(F)(F)F)c(CN2CCN(c3ccc(Br)cc3)CC2)c1` [Compound 20, N^1-(3-((4-(4-bromophenyl)piperazin-1-yl)methyl)-4-(trifluoromethyl)phenyl)-N^1,N^2,N^2-trimethylethan-1,2-diamine] the value was > 75%; for `CN(C)C1CCN(c2ccc(C(F)(F)F)c(CN3CCN(c4ccc(Cl)cc4)CC3)c2)CC1` [Compound 27, 1-(3-((4-(4-chlorophenyl)piperazin-1-yl)methyl)-4-(trifluoromethyl)phenyl)-N,N-dimethylpiperidin-4-amine], > 75%. Take `CSc1ccc(C(c2ccc(SC)cc2)N2CCN(Cc3cc(N(C)CCN(C)C)ccc3C#N)CC2)cc1` [Compound 102, 2-({4-(bis(4-(methylthio)phenyl]methyl}piperazin-1-yl)methyl)-4-{[2-(dimethylamino)ethyl](methyl)amino}benzonitrile]: the inhibition at 1 µM is > 75%.

As to `CCN1CCCN(c2ccc(C(F)(F)F)c(CN3CCN(C(c4ccccn4)c4ccccn4)CC3)c2)CC1` [Compound 65, 1-(3-((4-(di(pyridin-2-yl)methyl)piperazin-1-yl)methyl)-4-(trifluoromethyl)phenyl)-4-ethyl-1,4-diazepane], the inhibition at 1 µM lay within 50 to 75%. Consider `CN1CCCN(c2ccc(C#N)c(CN3CCN(C(c4ccncc4)c4ccc(Cl)cc4)CC3)c2)CC1` (centres unmarked) [Compound 89, 2-((4-((4-chlorophenyl)(pyridin-4-yl)methyl)piperazin-1-yl)methyl)-4-(4-methyl-1,4-diazepan-1-yl)benzonitrile], for which the inhibition at 1 µM was > 75%. Take `Cc1cc(C2CCN(Cc3cc(N4CCCN(C)CC4)ccc3C(F)(F)F)CC2)ccc1Cl` [Compound 43, 1-(3-((4-(4-chloro-3-methylphenyl)piperidin-1-yl)methyl)-4-(trifluoromethyl)phenyl)-4-methyl-1,4-diazepane]: the inhibition at 1 µM is > 75%. For `CN(C)CCN(C)c1ccc(C(F)(F)F)c(CN2CCN(C(c3ccc(Cl)cc3)c3ccc(Cl)cc3)CC2)c1` [Compound 52, N^1-(3-((4-(bis(4-chlorophenyl)methyl)piperazin-1-yl)methyl)-4-(trifluoromethyl)phenyl)-N^1,N^2,N^2-trimethylethan-1,2-diamine] the value was > 75%; for `Cc1cc(CN2CCN(Cc3cc(N4CCCN(C)CC4)ccc3C(F)(F)F)CC2)ccc1Cl` [Compound 4, 1-(3-((4-(4-chloro-3-methylbenzyl)piperazin-1-yl)methyl)-4-(trifluoromethyl)phenyl)-4-methyl-1,4-diazepane], > 75%; for `CN1CCCN(c2ccc(C(F)(F)F)c(CN3CCN(C(c4ccc(F)cc4)c4ccc(F)cc4)CC3)c2)CC1` [Compound 44, 1-(3-((4-(bis(4-fluorophenyl)methyl)piperazin-1-yl)methyl)-4-(trifluoromethyl)phenyl)-4-methyl-1,4-diazepane], > 75%. For `CN1CCCN(c2ccc(C#N)c(CN3CCN(C(c4ccc(Cl)cc4)C4CCC4)CC3)c2)CC1` (centres unmarked) [Compound 97, 2-({4-[(4-chlorophenyl)(cyclobutyl)methyl]piperazin-1-yl}methyl)-4-(4-methyl-1,4-diazepan-1-yl)benzonitrile] the value was > 75%; for `CN1CCN(c2ccc(C(F)(F)F)c(CN3CCN(c4ccc(Cl)cc4)CC3)c2)CC1` [Compound 30, 1-(4-chlorophenyl)-4-(5-(4-methylpiperazin-1-yl)-2-(trifluoromethyl)benzyl)piperazine], > 75%; for `CN1CCCN(c2ccc(C(F)(F)F)c(CN3CCC(Cc4ccc(Cl)cc4)CC3)c2)CC1` [Compound 7, 1-(3-((4-(4-chlorobenzyl)piperidin-1-yl)methyl)-4-(trifluoromethyl)phenyl)-4-methyl-1,4-diazepane], 50 to 75%.

For the compound `CCCC(c1ccc(OC)cc1)N1CCN(Cc2cc(N3CCCN(C)CC3)ccc2C(F)(F)F)CC1` (centres unmarked) [Compound 5, 1-(3-((4-(1-(4-methoxyphenyl)butyl)piperazin-1-yl)methyl)-4-(trifluoromethyl)phenyl)-4-methyl-1,4-diazepane], the inhibition at 1 µM is > 75%.

Take `CN1CCCN(c2ccc(C#N)c(CN3CCC(C(c4ccc(F)cc4)c4ccc(F)cc4)CC3)c2)CC1` [Compound 91, 2-((4-(bis(4-fluorophenyl)methyl)piperidin-1-yl)methyl)-4-(4-methyl-1,4-diazepan-1-yl)benzonitrile]: the inhibition at 1 µM is > 75%. `CN1CCCN(c2ccc(C(F)(F)F)c(CN3CCN(C(c4ccc(Cl)cc4)c4ccc(Cl)cc4)CC3)c2)CC1` [Compound 46, 1-(3-((4-(bis(4-chlorophenyl)methyl)piperazin-1-yl)methyl)-4-(trifluoromethyl)phenyl)-4-methyl-1,4-diazepane]: the inhibition at 1 µM is > 75%. For `CN(C)CCN(C)c1ccc(C(F)(F)F)c(CN2CCC(C(c3ccc(Cl)cc3)c3ccc(Cl)cc3)CC2)c1` [Compound 72, N^1-(3-((4-(bis(4-chlorophenyl)methyl)piperidin-1-yl)methyl)-4-(trifluoromethyl)phenyl)-N^1,N^2,N^2-trimethylethan-1,2-diamine] the value was > 75%.
